From patent US7973147B2, “K04-0144 substance and a process for production thereof” (The Kitasato Institute, priority 2006, dated 2011)
Converted amounts (≈) assume the structure as drawn. “Also recorded” adds a separate entry of the source.

Columns and labels:
[1] = system: clinical isolate of MRSA (K24 strain); assay: MRSA infectious model using silkworms; format: in vivo, silkworm; conditions: 25 mg/kg into dorsal vessel; 72 hours after the inoculation; untreated infected silkworms all died within 72 hours
Procedure: As an alternative method for in vivo MRSA infection model using animals, the infection system using silkworms has been reported (Kaito et al, Microbial Pathogenesis, 32: 183-190, 2002). Effect of K04-0144A substance was measured according to this method.
Test organism used was the clinical isolate of MRSA (K24 strain). The MRSA was cultured statically using LB-10 medium (DIFCO) at 37° C. for 18 hours, and a 50 μl of the cultured strain was inoculated into the hemolymph of silkworm, 5 instar, 2nd day, (about 2 g, Ehime sansyu eggs Co., Japan). K04-0144A substance was prepared to a solution of 1 mg/ml, and 50 μl of the solution were administered by using syringe to the dorsal vessel of 5 silkworms infected with MRSA (25 mg/kg). Effect of the K04-0144A substance was evaluated by comparing the survival rate between a group with administering the sample and a group without administering the sample during the raising period of 72 hours after the inoculation. […] Further, all silkworms administered with 50 μl of MRSA bacterial suspension died within 72 hours after the inoculation.

[2] = system: S. aureus ISP217; assay: MIC, agar plate dilution method; format: cell-based; conditions: Staphylococcus aureus; S. aureus ISP217; 37° C., 20 hours; read-out: MIC
Procedure: (§1) Assay of minimum inhibitory concentration (MIC) was performed according to the agar plate dilution method (Method of Japan Society of Chemotherapy, CHEMOTHERAPY 29, 76-79, 1981).
(§2) Test organisms used were 27 types of microorganisms including clinical isolates of methicillin-resistant Staphylococcus aureus. Each test organism was cultured in Mueller-Hinton broth (2.1% w/v) (DIFCO) at 37° C. for 20 hours, and the cultured cells were suspended to about 10^6 cell counts/ml in the same medium, then was used as the microbial suspension for inoculation. The prepared microbial suspension was smeared by using the microplanter on MHA medium (Mueller-Hinton broth 2.1% (w/v) and agar 1.5%) containing K04-0144A substance, K04-0144B substance or K04-0144C substance, each of which was subjected to two-fold stepwise dilution from 128 μg/ml. After culturing at 37° C. for 20 hours, MIC was determined by macroscopically confirming the growth of microorganisms. Vancomycin, arbekacin and linezolid were used as a comparative control.

[3] = system: S. aureus 8325(pEP2104); assay: MIC, agar plate dilution method; format: cell-based; conditions: Staphylococcus aureus, 20 h
Procedure: as §1, §2

[4] = system: M. luteus ATCC9341; assay: MIC, agar plate dilution method; format: cell-based; conditions: Micrococcus luteus; M. luteus ATCC9341; 37° C., 20 hours; read-out: MIC
Procedure: as §1, §2

[5] = system: S. aureus 8325(pMS97); assay: MIC, agar plate dilution method; format: cell-based; conditions: Staphylococcus aureus, 20 h
Procedure: as §1, §2

[6] = system: S. aureus FDA209P; assay: MIC, agar plate dilution method; format: cell-based; conditions: Staphylococcus aureus; S. aureus FDA209P; 37° C., 20 hours; read-out: MIC
Procedure: as §1, §2

[7] = system: S. marcescens IFO12648; assay: MIC, agar plate dilution method; format: cell-based; conditions: Serratia marcescens; S. marcescens IFO12648; 37° C., 20 hours; read-out: MIC
Procedure: as §1, §2

[8] = system: E. facecalis NTCT12201(VanA); assay: MIC, agar plate dilution method; format: cell-based; conditions: E. facecalis NTCT12201(VanA); 37° C., 20 hours; read-out: MIC
Procedure: as §1, §2

[9] = system: S. epidermidis IFO12648; assay: MIC, agar plate dilution method; format: cell-based; conditions: Staphylococcus epidermidis; S. epidermidis IFO12648; 37° C., 20 hours; read-out: MIC
Procedure: as §1, §2

[10] = system: E. aerogenes NCTC10006; assay: MIC, agar plate dilution method; format: cell-based; conditions: Klebsiella aerogenes; E. aerogenes NCTC10006; 37° C., 20 hours; read-out: MIC
Procedure: as §1, §2

[11] = system: C. freundii ATCC8090; assay: MIC, agar plate dilution method; format: cell-based; conditions: Citrobacter freundii; C. freundii ATCC8090; 37° C., 20 hours; read-out: MIC
Procedure: as §1, §2

[12] = system: M. morganii IID Kono; assay: MIC, agar plate dilution method; format: cell-based; conditions: Morganella morganii; M. morganii IID Kono; 37° C., 20 hours; read-out: MIC
Procedure: as §1, §2

[13] = system: E. coli NIHJ JC-2; assay: MIC, agar plate dilution method; format: cell-based; conditions: Escherichia coli, NIHJJC2; E. coli NIHJ JC-2; 37° C., 20 hours; read-out: MIC
Procedure: as §1, §2

[14] = system: P. aeruginosa E-2; assay: MIC, agar plate dilution method; format: cell-based; conditions: Pseudomonas aeruginosa, E2; P. aeruginosa E-2; 37° C., 20 hours; read-out: MIC
Procedure: as §1, §2

[15] = system: P. mirabilis IFO3849; assay: MIC, agar plate dilution method; format: cell-based; conditions: Proteus mirabilis; P. mirabilis IFO3849; 37° C., 20 hours; read-out: MIC
Procedure: as §1, §2

[16] = system: A. calcoaceticus IFO2552; assay: MIC, agar plate dilution method; format: cell-based; conditions: Acinetobacter calcoaceticus; A. calcoaceticus IFO2552; 37° C., 20 hours; read-out: MIC
Procedure: as §1, §2

[17] = system: P. aeruginosa 46001; assay: MIC, agar plate dilution method; format: cell-based; conditions: Pseudomonas aeruginosa; P. aeruginosa 46001; 37° C., 20 hours; read-out: MIC
Procedure: as §1, §2

[18] = system: S. aureus Smith; assay: MIC, agar plate dilution method; format: cell-based; conditions: Staphylococcus aureus; S. aureus Smith; 37° C., 20 hours; read-out: MIC
Procedure: as §1, §2

[19] = system: S. aureus ISP447; assay: MIC, agar plate dilution method; format: cell-based; conditions: Staphylococcus aureus; S. aureus ISP447; 37° C., 20 hours; read-out: MIC
Procedure: as §1, §2

[20] = system: E. faecium NTCT12203(VanA); assay: MIC, agar plate dilution method; format: cell-based; conditions: Enterococcus faecium; E. faecium NTCT12203(VanA); 37° C., 20 hours; read-out: MIC
Procedure: as §1, §2

[21] = system: K. pneumoniae NCTN9632; assay: MIC, agar plate dilution method; format: cell-based; conditions: Klebsiella pneumoniae; K. pneumoniae NCTN9632; 37° C., 20 hours; read-out: MIC
Procedure: as §1, §2

[22] = system: E. cloacae IFO13535; assay: MIC, agar plate dilution method; format: cell-based; conditions: Enterobacter cloacae; E. cloacae IFO13535; 37° C., 20 hours; read-out: MIC
Procedure: as §1, §2

[23] = system: E. faecalis ATCC21212; assay: MIC, agar plate dilution method; format: cell-based; conditions: Enterococcus faecalis; E. faecalis ATCC21212; 37° C., 20 hours; read-out: MIC
Procedure: as §1, §2

[24] = system: P. vulgaris OX-19; assay: MIC, agar plate dilution method; format: cell-based; conditions: Proteus vulgaris, OX19; P. vulgaris OX-19; 37° C., 20 hours; read-out: MIC
Procedure: as §1, §2

[25] = system: MRSA 92-1191; assay: MIC, agar plate dilution method; format: cell-based, methicillin-resistant Staphylococcus aureus; conditions: Staphylococcus aureus; MRSA 92-1191; 37° C., 20 hours; read-out: MIC
Procedure: as §1, §2

[26] = system: MRSA N315 IR94 HR-1; assay: MIC, agar plate dilution method; format: cell-based, methicillin-resistant Staphylococcus aureus; conditions: Staphylococcus aureus, 20 h
Procedure: as §1, §2

[27] = system: MRSA 70; assay: MIC, agar plate dilution method; format: cell-based, methicillin-resistant Staphylococcus aureus; conditions: Staphylococcus aureus; MRSA 70; 37° C., 20 hours; read-out: MIC
Procedure: as §1, §2

[28] = Solubility in solvent; format: physicochemical; conditions: listed as K04-0144A substance
[29] = system: silkworms; assay: Toxicity against silkworms (substance only, no infection); format: in vivo, silkworm; conditions: 25 mg/kg, uninfected silkworms, 72 hours

With `C=C(C/C=C(\C)CCC=C(C)C)CCC(C)(C)/C=C/CC/C(C)=C\COC(COP(=O)(O)OC1OC(C(N)=O)C(C)(O)C(OC(N)=O)C1OC1OC(COC2OC(CO)C(O)C(O)C2O)C(OC2OC(C)C(OC3OC(C(=O)O)C(O)C(O)C3O)C(O)C2NC(C)=O)C(O)C1NC(C)=O)C(=O)O` (centres unmarked) [K04-0144A] the “survival of silkworms infected with MRSA” value [1] was “all survived after 72 hours of the inoculation”, the MIC [2] was 0.25 µg/mL (≈ 0.168 µM) and the MIC [3] was 0.06 µg/mL (≈ 0.0403 µM). The MIC [4] was greater than 16 µg/mL, the MIC [5] was 0.5 µg/mL (≈ 0.336 µM) and the MIC [6] was 1 µg/mL (≈ 0.672 µM). It also gave an MIC [7] greater than 16 µg/mL, an MIC [8] of 1 µg/mL (≈ 0.672 µM) and an MIC [9] of 4 µg/mL (≈ 2.69 µM). For the same compound, the MIC [10] was greater than 16 µg/mL, the MIC [11] was greater than 16 µg/mL and the MIC [12] was greater than 16 µg/mL. For the same compound, the MIC [13] was greater than 16 µg/mL, the MIC [14] was greater than 16 µg/mL and the MIC [15] was greater than 16 µg/mL. For the same compound, the MIC [16] was 16 µg/mL (≈ 10.8 µM), the MIC [17] was greater than 16 µg/mL and the MIC [18] was 1 µg/mL (≈ 0.672 µM). The MIC [19] was 0.25 µg/mL (≈ 0.168 µM), the MIC [20] was greater than 16 µg/mL and the MIC [21] was greater than 16 µg/mL. For the same compound, the MIC [22] was greater than 16 µg/mL, the MIC [23] was 1 µg/mL (≈ 0.672 µM) and the MIC [24] was greater than 16 µg/mL. The MIC [25] was 0.25 µg/mL (≈ 0.168 µM), the MIC [26] was 0.125 µg/mL (≈ 0.084 µM) and the MIC [27] was 0.06 µg/mL (≈ 0.0403 µM). The Solubility in solvent [28] was “Soluble in methanol and water DMSO; also recorded: Insoluble in acetone, chloroform and hexane” and the “toxicity against silkworms (survival, substance only)” value [29] was “no toxicity against silkworms”.
